From patent EP4685144A1, “NON-FLUORESCENT COMPOUND AND USES THEREOF” (SFC Co., Ltd., priority 2023, dated 2024)

How the values were obtained:
[1] = Photophysical properties of the non-fluorescent compounds in DMSO solvent; assay type: physicochemical; design: εmax: unit not given here; details: for Quantum Yield(Φ) / εmax / λabs: DMSO solvent
Source text: The photophysical properties measured in DMSO solvent for the non-fluorescent compounds synthesized according to the above synthesis examples are shown in Table 1 below.

[2] = commercially available quencher; cited from earlier work

SMILES | maximum absorption wavelength [1] | Quantum Yield(Φ) [1] | εmax [1] | λabs [1] [nm] | absorbs light in the range [2]
C[n+]1c(C=CC=c2c3cccc4cccc(c43)n2CCCCCC(=O)O)sc2ccccc21 [Dye 2] | above 650 nm | 0.006 | 28,000 | 664 | –
Cn1c(=CC=CC2=Nc3c(ccc[n+]3CCCCCC(=O)O)C2(C)C)c2cccc3cccc1c32 [Dye 12] | – | 0.002 | 53,000 | 676 | –
CCN(CC)c1ccc2nc3ccc(/N=N/c4ccc(N(C)CCCC(=O)O)cc4)cc3[n+](-c3ccccc3)c2c1 [BHQ-3] | – | – | – | – | 650-700 nm
Cn1c(=CC=CC2=[N+](CCCCCC(=O)O)c3ccccc3C2(C)C)c2cccc3cccc1c32 [Dye 6] | – | 0.005 | 75,000 | 672 | –

Continued, in another order:

maximum absorption wavelength [1] | Quantum Yield(Φ) [1] | εmax [1] | λabs [1] [nm] | SMILES | absorbs light in the range [2]
– | 0.001 | 65,000 | 690 | Cn1c(=CC=CC2=[N+](CCCCCC(=O)O)c3ccc4sc5ccccc5c4c3C2(C)C)c2cccc3cccc1c32 [Dye 48] | –
above 650 nm | 0.001 | 68,000 | 692 | Cn1c(=CC=CC2=[N+](CCCCCC(=O)O)c3c(ccc4ccccc34)C2(C)C)c2cccc3cccc1c32 [Dye 16] | –
– | 0.002 | 24,000 | 630 | CC[n+]1c(C=CC=c2c3cccc4cccc(c43)n2CCCCCC(=O)O)sc2ccc3ccccc3c21 [Dye 61] | –
– | 0.007 | 42,000 | 600 | C[n+]1c(C=CC=c2c3cccc4cccc(c43)n2CCCCCC(=O)O)oc2c3ccccc3ccc21 [Dye 60] | –
above 650 nm | 0.002 | 37,000 | 672 | CCn1c(=CC=CC2=[N+](CCCC(=O)O)c3c(ccc4c3c3ccccc3n4C)C2(C)C)c2cccc3cccc1c32 [Dye 17] | –
– | 0.005 | 74,000 | 680 | CCn1c(=CC=CC=CC2=[N+](CCCCCC(=O)O)c3cc4c(cc3C2(C)C)-c2ccccc2C4(C)C)c2cccc3cccc1c32 [Dye 18] | –
